The results in this text go back to patent US20240400606A1, “SMALL MOLECULE ACTIVATORS OF THE IMMUNE SYSTEM” (THE BOARD OF TRUSTEES OF THE UNIVERSITY OF ILLINOIS, priority 2021, published 2024).

Entries after “also recorded” stand apart in the source; their conditions may differ.

The test system of data set [1] is STS and SULT2B1b levels in MCF-7. Briefly: Western blot of STS and SULT2B1b after treatment, MCF-7. The class given is cell-based, human. Particulars: MCF-7, 6.25 μM, 72 hours. On the procedure: (§1) Western Blot Analysis. Cells were lysed using RIPA buffer containing phosphatase (BioVision) and protease inhibitor cocktail (Calbiochem). Protein concentrations were determined using the BCA assay (Pierce). Lysates containing 15 μg of protein were loaded onto 4-20% gradient gels (BioRad), and SDS-PAGE was run. Proteins were then transferred onto membrane (PVDF Millipore) for Western Blot analysis. Blots were blocked with BSA solution (2 g in 40 mL TBST) for one hour followed by primary antibody addition and incubation overnight (using manufacturer's recommended dilutions). Following overnight incubation, blots were washed with TBST, and incubated with HRP-linked secondary antibody for 1 hour in TBST. Blots were washed, then imaged with ChemiDoc after incubation with SuperSignal West Pico Solution following manufacturer's procedures.

Data set [2] can be described thus: Pharmacokinetic mouse studies. The class given is in vivo, C57BL/6 mice. As to conditions: for concentration in the serum: mice. As to the method:
Pharmacokinetic Analysis. […] Whole blood was collected, centrifuged, and EDTA serum separated for quantification by […] methods (UIUC Metabolomics Center, Urbana, IL).
Pharmacokinetic mouse studies: Compound (3) was formulated in 50% DMSO, 50% Peg400 at 40 mg/mL (for 200 mg/kg injection), Compound was injected intraperitoneally into female C57BL/6 mice (3 per time point). Blood from the mice were harvested at each time point. Serum was separated and concentration in the serum was quantified by LC-MS/MS.

Data set [3] deals with free cholesterol levels in MCF-7. Kind of data set: Whole cell cholesterol assay. The class given is cell-based, human. As to conditions: MCF-7, 6.25 μM, 72 hours. As to the method:
Whole Cell Cholesterol Assay. Assay was run according to manufacturer's instructions. Briefly, 5000 MCF-7 cells were plated in 99 μL media in a 96-well plate and allowed to adhere overnight before DMSO solutions of compounds were added to each well. Final concentration of DMSO in each well is 1%, final volume: 100 μL. At the end of 72 hours, media was aspirated, and cells were washed twice with 100 μL PBS. 50 μL of cholesterol lysis solution was added and cells were incubated for 30 minutes at 37° C. 50 μL of sample was then transferred to a 96-well white walled assay plate. 50 μL of cholesterol detection reagent was added to all wells and incubated at room temperature for 1 hour. Luminescence was read using a SpectraMax M3 plate reader (Molecular Devices). Cholesterol levels were determined by use of a cholesterol standard curve.

In data set [4] the test system is STS and SULT2B1b levels in T47D. Briefly: Western blot of STS and SULT2B1b after treatment, T47D. The class given is cell-based. As to conditions: 6.25 μM, 72 hours. On the procedure: as §1
In data set [5] the target is human carbonic anhydrase II (hCAII) (Homo sapiens (Human), UniProt P00918). Kind of data set: Human carbonic anhydrase II assay. Particulars: concentrations up to 200 μM; listed as IB:10:D. The class given is biochemical. On the procedure:
Human Carbonic Anhydrase II Assay. Stock solutions of compound of interest (in DMSO), acetazolamide (10 μM in DMSO), hCAII solution (65 μL of 33 μM stock to 1.935 mL hCAII assay buffer to make 1 μM hCAII solution), and 4-nitrophenylacetate (4-NPA; 60 μL of 100 mM DMSO stock to 3 mL hCAII assay buffer to make 2 mM 4-NPA solution). To the wells of a 384-well clear bottom plate were added 1 μL compound of interest or 10 μM acetazolamide. 20 μL of hCAII solution was added to all wells except no enzyme control well, in which case 20 μL hCAII assay buffer was added instead. Plates were incubated for 11 minutes at room temperature before addition of 4-NPA solution to all wells. Absorbance at 348 nm was read every 10 seconds of 11 minute total run time. Three technical replicates were assessed per plate. Controls: hCAII+4-NPA (DMSO added in place of compound of interest, DMSO control), 4-NPA background (no enzyme, DMSO added in place of compound of interest, 4-NPA control), hCAII+4-NPA+acetazolamide (acetazolamide added in place of compound of interest, known hCAII inhibitor).
Percent inhibition calculated as: 100−[100×[(AbSaverage, compound of interest−AbSaverage, 4-NPA)/(AbSaverage, DMSO−AbSaverage, 4-NPA)]].

Where [6] appears, read: female, mouse, 200 mg/kg, C57BL/6 mice, single IP dose, serum.

Take `C[C@]12CCC(=O)N(Cc3ccc(Br)cc3)C1=CC[C@@H]1[C@@H]2C(=O)C[C@]2(C)C(=O)CC[C@@H]12` [Compound 3, (4aR,4bS,6aS,9aS,9bS)-1-(4-bromobenzyl)-4a,6a-dimethyl-3,4,4a,6,6a,8,9,9a,9b,10-decahydro-1H-indeno[5,4-f]quinoline-2,5,7(4bH)-trione]: the “STS and SULT2B1b levels after treatment” value in data set [1] is “unchanged”. The compound further came in with a CL in data set [2] (C57BL/6 mice, single IP dose, serum) of 90.56 mL/min/kg. In addition, in data set [2] (setting [6]), the AUC was 36800 ng·h/mL, the maximum concentration (Cmax) worked out at 19800 ng/mL, the MRT is 1.86 h and the half-life came out at 1.29 h. Besides, the “concentration in the serum” value in data set [2] (200 mg/kg intraperitoneally) was approximately 50 µM. In data set [2] (stated as 150 mg/kg IP), the “concentration in the serum” value is approximately 50 µM. In data set [3], the “free cholesterol levels vs DMSO” value was “no statistical difference”. For the same compound, in data set [4], the “STS and SULT2B1b levels after treatment” value is listed as “unchanged”.
Consider `C[C@]12CCC(=O)N(Cc3ccc(Cl)cc3)C1=CC[C@@H]1[C@@H]2C(=O)C[C@]2(C)C(=O)CC[C@@H]12` [Compound 1, (4aR,4bS,6aS,9aS,9bS)-1-(4-chlorobenzyl)-4a,6a-dimethyl-3,4,4a,6,6a,8,9,9a,9b,10-decahydro-1H-indeno[5,4-f]quinoline-2,5,7(4bH)-trione], for which the “inhibition of hCAII” value in data set [5] is recorded as “does not inhibit; also recorded: No inhibition”.
